From patent publication US20070173496A1, “Novel polymorph E of Olanzapine and preparation of anhydrous non-solvated crystalline polymorphic Form I of 2-methyl-4(4-methyl-1-piperazinyl)-10H-thieno[2,3-b][1,5] benzodiazepine (Olanzapine Form I) from the polymorphic Olanzapine Form E” (priority 2006, published 2007)

Columns and labels:
[1] = commercially available Form I prepared by prior art methods (U.S. Pat. No. 5,229,382); cited from earlier work
[2] = color stability of Olanzapine Form I on exposure at room temperature / in air; format: physicochemical; settings: Form I from Form E by rapid crystallization in methylene chloride-methanol and step-wise drying, at least 3 months
Description: In another aspect of this invention the new poly-type Olanzapine Form E generated with rapid crystallization in methylene chloride-methanol along with step-wise drying techniques produces non-solvated anhydrous Form I of 2-methyl-4-(4-methyl-1-piperazinyl)-10H-thieno[2,3-b][1,5] benzodiazepine which is stable enough to be used commercially in pharmaceutical formulations.

[3] = solid-state stability of poly-type Form E at room temperature; format: physicochemical; settings: step-wise drying converts it to Form I
Description: The new poly-type E is stable at room temperature but when subjected to step-wise drying techniques results in substantially pure Olanzapine Form I.

| Structure (SMILES) | color change over time due to exposure in air [1] | color change during exposure at room temperature [2] | stability at room temperature [3] |
| --- | --- | --- | --- |
| Cc1cc2c(s1)Nc1ccccc1N=C2N1CCN(C)CC1 [Olanzapine Form I, 2-methyl-4-(4-methyl-1-piperazinyl)-10H-thieno[2,3-b][1,5] benzodiazepine] | color is found to change over time | No color change | – |
| Cc1cc2c(s1)Nc1ccccc1N=C2N1CCN(C)CC1 [poly-type E, 2-methyl-4-(4-methyl-1-piperazinyl)-10H-thieno[2,3-b][1,5] benzodiazepine] | – | – | stable |
